Test results: patent publication US20040176467A1, “Method of preventing or reducing the occurrence of symptoms of psychosis” (priority 2004, published 2004)

Key:
schizophrenia patients = details: cited from earlier work
[1] = system: neurons in substantia nigra (SN), ventral tegmentum (VTA), and nucleus accumbens (NA); details: cited from earlier work
rat locomotion = details: cited from earlier work; for effect on locomotion at higher doses: significant D2 receptor occupancy or activation; for effect on locomotion at low doses: devoid of significant D2 receptor occupancy; for effect on rat locomotion: D3 antagonists
[2] = system: locomotor sensitization to amphetamine; assay: locomotor sensitization to amphetamine; format: in vivo
[3] = system: D3 knockout and wild type mice; details: habituated animals; cited from earlier work
[4] = target: D3 dopamine receptor (D3/D2) (Homo sapiens, UniProt P35462); details: cited from earlier work
[5] = system: stereotyped behaviors induced by apomorphine and dizocilipine; details: preclinical models of antipsychotic drug efficacy; cited from earlier work
D2 receptors = D2 receptors (Homo sapiens, UniProt P14416); assay: biochemical; details: read-out: occupancy for D2
behavioral sensitization = details: later challenge; cited from earlier work
D2 receptor = details: dose that inhibits sensitization; cited from earlier work

Sequence of D3 dopamine receptor (D3/D2) (P35462 whole entry): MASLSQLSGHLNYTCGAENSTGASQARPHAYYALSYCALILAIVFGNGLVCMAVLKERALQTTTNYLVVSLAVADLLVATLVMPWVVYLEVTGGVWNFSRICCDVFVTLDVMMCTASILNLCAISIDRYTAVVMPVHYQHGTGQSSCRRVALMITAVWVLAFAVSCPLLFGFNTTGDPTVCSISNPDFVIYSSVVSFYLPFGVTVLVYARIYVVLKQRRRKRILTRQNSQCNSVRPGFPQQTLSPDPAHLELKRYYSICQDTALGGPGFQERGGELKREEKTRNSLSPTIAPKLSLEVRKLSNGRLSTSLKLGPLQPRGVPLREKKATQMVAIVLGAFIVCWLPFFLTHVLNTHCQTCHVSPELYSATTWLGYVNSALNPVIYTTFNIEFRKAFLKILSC
Sequence of D2 receptors (P14416 whole entry): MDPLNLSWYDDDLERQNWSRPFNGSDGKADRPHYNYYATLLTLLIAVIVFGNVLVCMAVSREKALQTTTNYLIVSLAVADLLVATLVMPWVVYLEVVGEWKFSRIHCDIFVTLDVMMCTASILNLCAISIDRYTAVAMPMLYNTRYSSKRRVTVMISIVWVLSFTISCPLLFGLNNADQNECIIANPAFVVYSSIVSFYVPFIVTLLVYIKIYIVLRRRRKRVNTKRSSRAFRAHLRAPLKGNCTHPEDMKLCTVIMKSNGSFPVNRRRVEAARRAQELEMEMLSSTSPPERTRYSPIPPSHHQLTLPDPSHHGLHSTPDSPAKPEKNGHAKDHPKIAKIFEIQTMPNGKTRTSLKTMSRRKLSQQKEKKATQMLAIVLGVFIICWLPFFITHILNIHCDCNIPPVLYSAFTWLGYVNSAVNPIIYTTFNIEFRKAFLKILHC

For `CCCN1CCCC(c2cccc(O)c2)C1` (single isomer, unassigned; (-)) [(−)-3PPP, (−)-3-(3-hydroxyphenyl)-N-n-propylpiperidine], the “effect on psychotic symptoms” value (schizophrenia patients) is listed as “improved psychotic symptoms in schizophrenia patients for up to one week”.
In the case of `CCCN(CCC)C1CCc2ccc(O)cc2C1` (stereo not shown) [7-OH-DPAT, 7-hydroxy-N,N-di-n-propyl-2-aminotetralin], the “effect on neuronal firing rate” value [1] is listed as “inhibits neuronal firing rate”, the “effect on locomotion at higher doses” value (rat locomotion) is listed as “stimulation of locomotion” and the “effect on locomotion at low doses” value (rat locomotion) is listed as “inhibition of spontaneous locomotion”. For the same molecule, the “effect on locomotion after micro-injection” value (rat locomotion; micro-injection into rat nucleus accumbens, also systemic administration in mice) was “inhibition of locomotion”, the “behavioral response to the D3 agonist after a sensitizing regimen of amphetamine” value ([2]; following a sensitizing regimen of amphetamine) was “decreased behavioral response” and the “difference in hypolocomotor behavioral response between D3 knockout and wild type mice” value [3] was “Neither laboratory found a significant difference”.
For `CCCN[C@@H]1CCc2c(OC)cccc2[C@@H]1C` [(+)-AJ 76], the “effect on rat locomotion” value (rat locomotion) is given as “stimulate rat locomotion”.
In the case of `CCCN(CCC)[C@@H]1CCc2c(OC)cccc2[C@@H]1C` [(+)-UH 232], the “effect on rat locomotion” value (rat locomotion) is given as “stimulate rat locomotion” and the “effect on psychotic symptoms” value (schizophrenia patients) is given as “further worsened positive psychotic symptoms”.
For `O=C(NCCCCN1CCN(c2cccc(Cl)c2Cl)CC1)c1ccc2c(c1)Cc1ccccc1-2` [NGB 2904], the “preference (selectivity) for D3/D2” value [4] is given as 155 fold.
For `CCCN1CCO[C@@H]2c3cc(O)ccc3OC[C@H]21` [PD 128907], the “effect on locomotion at higher doses” value (rat locomotion) is given as “stimulation of locomotion”, the “effect on locomotion at low doses” value (rat locomotion) is given as “inhibition of spontaneous locomotion” and the “effect on stereotyped behaviors induced by apomorphine and dizocilipine” value [5] is given as “effectively inhibits”. The “difference in hypolocomotor behavioral response between D3 knockout and wild type mice” value [3] was “Neither laboratory found a significant difference”.
In the case of `N#Cc1ccc2c(c1)[C@H]1CN(CCCCNC(=O)c3ccc(-c4ccccc4)cc3)C[C@@H]1CO2` [S33084], the “preference (selectivity) for D3/D2” value [4] is listed as 100 fold.
In the case of `CCCN(CCC)C1Cc2cc(OC)c(OC)cc2C1` [U99194A], the “effect on rat locomotion” value (rat locomotion) is given as “stimulate rat locomotion”.
For `NCCc1ccc(O)c(O)c1` [dopamine], the receptor occupancy at 0.75 µM (D2 receptors) was 27%.
In the case of `O=C(CCCN1CCC(O)(c2ccc(Cl)cc2)CC1)c1ccc(F)cc1` [haloperidol], the “sensitization after repetitive treatment” value (behavioral sensitization) is given as “results in sensitization to later challenge by cocaine, amphetamine, or the dopamine agonist apomorphine”.
For `CCCCN1CCCC1CNC(=O)c1cc(C#N)c2ccccc2c1OC` (stereo not shown) [nafadotride], the “effect on rat locomotion” value (rat locomotion) is given as “stimulate rat locomotion”, the “preference (selectivity) for D3/D2” value [4] is given as 10 fold and the “effect on locomotor sensitization to amphetamine” value ([2]; dose devoid of appreciable D2 receptor occupancy) is given as “inhibition of locomotor sensitization to amphetamine”. For the same molecule, the “D2 receptor occupancy at the dose used” value (D2 receptor) was “devoid of appreciable D2 receptor occupancy”.
In the case of `CCN1CCCC1CNC(=O)c1cc(S(N)(=O)=O)ccc1OC` (stereo not shown) [sulpiride], the D2/D3 affinity ratio [4] is given as 2 and the “sensitization after repetitive treatment” value (behavioral sensitization) is given as “results in sensitization to cocaine”.
